In PubChem BioAssay (NCI) one finds TGI data, which are given here for 15 compounds.

Common to all, as to assay: NCI anticancer screen, dose series, 48 h
For experiment [1], the system named is NCI-H226 lung.
For experiment [2], the system named is 786-0 renal.
Experiment [3] deals with SNB-19 CNS.
Experiment [4] relates to A498 renal.
The subject of experiment [5] is U251 CNS.
In experiment [6] the test system is SK-MEL-2 melanoma.
Experiment [7] has as its system EKVX NSCLC.
Experiment [8] deals with UO-31 renal.
Experiment [9] deals with SF-295 CNS.
For experiment [10], the system named is SF-268 CNS.
Experiment [11] relates to CAKI-1 renal.
For experiment [12], the system named is SK-MEL-28 melanoma.
Experiment [13] relates to HCT-15 colon.
For experiment [14], the system named is SNB-75 CNS.
Experiment [15] concerns RXF 393 renal.
Experiment [16] relates to MDA-MB-435.
The test system of experiment [17] is HOP-62 NSCLC.
The test system of experiment [18] is NCI/ADR-RES ovarian.
Experiment [19] has as its system SF-539 CNS.
Experiment [20] deals with SK-OV-3 ovarian.

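Protocol summary: plate cells (96-well), add compound at 5 concentrations, incubate 48 h, interpolate endpoints linearly. TGI: concentration producing complete growth inhibition.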

Regarding `CCOC(=O)c1ccc(C(=O)n2ccnc2)[nH]1`, the TGI in [1], in [2], in experiment [3], in experiment [4], in experiment [5] and in [6] was above 100 µM each time. Further, the TGI in experiment [7], in experiment [8], in [9], in [10], in experiment [11] and in experiment [12] was above 100 µM each time. The TGI in experiment [13], in [14], in [15], in [16], in [17] and in experiment [18] was above 100 µM in each case.

As to `CCCC1CC(=O)NC(=O)C1C(=O)OC(C)(C)C` (stereo not given), the TGI in [1], in [2], in experiment [3], in [4], in [5] and in [6] was above 100 µM in each case. For the same compound, the TGI in [7], in experiment [8], in [9], in [10], in [11] and in experiment [12] was above 100 µM in each case. In addition, the TGI in experiment [13], in [14], in experiment [15], in experiment [16], in experiment [17] and in experiment [18] was above 100 µM throughout.

For `COc1cc2cc(C(=O)N3CC(CCl)c4ccc([N+](=O)[O-])cc43)[nH]c2c(OC)c1OC` (stereo not given), the TGI in experiment [2] was above 100 µM; in experiment [3], above 100 µM; in experiment [4], above 100 µM; in [5], above 100 µM; in [6], above 100 µM; in experiment [7], 67.2 µM. Moreover, the TGI in experiment [8], in [9], in [10], in experiment [11], in experiment [12] and in experiment [13] was above 100 µM in each case. For the same compound, the TGI in [14], in experiment [15], in experiment [19], in experiment [16], in experiment [17] and in experiment [18] was above 100 µM each time.

Regarding `COc1ccc2c(c1)-c1c(c3cc(OC)ccc3n1CCCN(C)C)CC2`, the TGI was 6.82 µM in experiment [1]; above 100 µM in experiment [2]; 34 µM in experiment [3]; 31.3 µM in experiment [4]; 27 µM in [5]; 31 µM in [6]. For the same compound, the TGI in experiment [7] was 31.4 µM; in experiment [8], 26.7 µM; in [9] it was 16.8 µM; in experiment [10], 26.2 µM; in experiment [11], 28.1 µM; in experiment [20] it was 32.7 µM. Besides, the TGI stood at 13 µM in experiment [12]; 32.1 µM in experiment [13]; 13.9 µM in experiment [14]; 20.2 µM in experiment [15]; 15.1 µM in experiment [16]; 29.2 µM in experiment [17]. Moreover, the TGI in experiment [18] turned out to be 31.4 µM.

Consider `CC(C)CCNC(=O)C(CC(C)C)NC(=O)[C@H]1O[C@@H]1C(=O)O` (stereo not given in full), for which the TGI in experiment [1], in experiment [2], in experiment [3], in experiment [4], in [5] and in [7] was above 100 µM throughout. In addition, the TGI in experiment [8], in [9], in [10], in experiment [11], in experiment [20] and in experiment [12] was above 100 µM each time. In addition, the TGI in [13], in [14], in [19], in experiment [16], in experiment [17] and in experiment [18] was above 100 µM throughout.

Take `O=c1oc2ccccc2c(O)c1C(c1cnc2ccccc2c1)c1c(O)c2ccccc2oc1=O`: the TGI in experiment [1], in experiment [2], in experiment [3], in [4], in experiment [5] and in experiment [6] was above 100 µM in each case. In addition, the TGI was above 100 µM in experiment [7]; above 100 µM in experiment [8]; 67.2 µM in experiment [10]; above 100 µM in experiment [11]; above 100 µM in experiment [12]; above 100 µM in experiment [13]. Further, the TGI in experiment [14] is 52.7 µM; in experiment [16] it was above 100 µM; in experiment [17], above 100 µM; in experiment [18], above 100 µM.

With `C[Si](C)(C)c1ccc(-c2c3ccc(-c4cc(Br)cc(Br)c4)nc3nc3nc(-c4cc(Br)cc(Br)c4)ccc23)cc1`, the TGI in [1], in experiment [2], in [3], in experiment [4], in [5] and in experiment [6] was above 100 µM each time. In addition, the TGI in experiment [7], in experiment [8], in [9], in [10], in experiment [11] and in experiment [20] was above 100 µM each time. Further, the TGI in [12], in experiment [13], in experiment [14], in [16], in experiment [17] and in [18] was above 100 µM in each case.

With `CCOC(=O)CC[C@H](NC(=O)N[C@H](C)c1ccccc1)C(=O)OCC`, the TGI in [1] is above 100 µM; in experiment [2], above 100 µM; in experiment [3] it was above 100 µM; in experiment [4], above 100 µM; in experiment [5], above 100 µM; in experiment [6], 52.8 µM. The TGI in experiment [7] was above 100 µM; in experiment [8] it was above 100 µM; in [9] it was above 100 µM; in experiment [11] it was above 100 µM; in experiment [20], above 100 µM; in experiment [12] it was 43.8 µM. In addition, the TGI was above 100 µM in experiment [13]; 45.5 µM in [19]; 69.1 µM in experiment [16]; above 100 µM in experiment [17]; 75.9 µM in [18].

Turning to `O=[N+]([O-])c1ccc(N/N=C2/CC3=C2CCCCCCCCCC3)c([N+](=O)[O-])c1`, the TGI in experiment [1], in [2], in experiment [3], in [4], in [5] and in experiment [6] was above 100 µM throughout. Moreover, the TGI in [7], in [8], in experiment [9], in experiment [10], in experiment [11] and in experiment [20] was above 100 µM throughout. The TGI in [12], in [13], in experiment [14], in experiment [15], in [16] and in [17] was above 100 µM in each case. Moreover, in experiment [18], the TGI was above 100 µM.

Regarding `CON(C)C(=O)[C@H]1C[C@@]1(C)CO`, the TGI in experiment [1], in experiment [2], in [3], in experiment [4], in experiment [5] and in experiment [6] was above 100 µM each time. Also, the TGI in experiment [7], in experiment [8], in experiment [9], in [10], in experiment [11] and in experiment [20] was above 100 µM in each case. Further, the TGI in experiment [12], in experiment [13], in experiment [14], in experiment [15], in experiment [16] and in experiment [17] was above 100 µM each time. This compound returned a TGI in [18] above 100 µM.

Regarding `CC1(C)C2CCC1(C)C(OC(=O)/C=C/C(=O)OC1CC3CCC1(C)C3(C)C)C2` (stereo not given), the TGI in experiment [2], in experiment [3], in experiment [4], in [5], in [6] and in experiment [7] was above 100 µM in each case. Besides, the TGI was above 100 µM in [8]; above 100 µM in experiment [9]; above 100 µM in [10]; above 100 µM in experiment [11]; 40.2 µM in experiment [12]; above 100 µM in [13]. Besides, the TGI in [14] is 86.6 µM; in experiment [15] it was above 100 µM; in experiment [19], above 100 µM; in [16], above 100 µM; in [17], above 100 µM; in experiment [18] it was above 100 µM.

Consider `COc1ccc2[nH]c3c(c2c1)CC(=O)N1CCCC(CC3O)C1` (stereo not given), for which the TGI in experiment [1], in [2], in experiment [3], in experiment [4], in experiment [5] and in experiment [6] was above 100 µM throughout. For the same compound, the TGI in [8], in [9], in [10], in [11], in experiment [20] and in [12] was above 100 µM each time. Moreover, the TGI in experiment [13], in experiment [14], in experiment [19], in experiment [16] and in [18] was above 100 µM throughout.

Consider `CCOC(=O)Cn1c2ccc(Br)cc2c2nc3ccccc3nc21`, for which the TGI in experiment [1], in experiment [2], in experiment [3], in [4], in experiment [5] and in [6] was above 100 µM in each case. The TGI in [8], in experiment [9], in [10], in [11], in experiment [12] and in experiment [14] was above 100 µM in each case. The TGI in experiment [15], in experiment [16], in experiment [17] and in experiment [18] was above 100 µM each time.

Regarding `C/C(N)=C/C(=O)c1[nH]c(C(=O)O)cc1C1CCN(Cc2ccccc2)C1=O` (stereo not given), the TGI in experiment [2] was 85 µM; in experiment [3] it was above 100 µM; in experiment [4], above 100 µM; in [5], above 100 µM; in experiment [6], 77.6 µM; in experiment [7], above 100 µM. In addition, the TGI in experiment [8] is 75.2 µM; in experiment [9], 49.6 µM; in experiment [10], 60.8 µM; in [11] it was above 100 µM; in experiment [20] it was 71.3 µM; in [12], 72.5 µM. The TGI is above 100 µM in experiment [13]; 88.4 µM in [14]; 45.2 µM in [15]; above 100 µM in experiment [16]; 42.8 µM in experiment [17]; 51.6 µM in experiment [18].

With `Cc1ccc(Cc2nn(C)c(=O)n2N)cc1`, the TGI in experiment [1], in [2], in experiment [3], in experiment [4], in [5] and in experiment [6] was above 100 µM in each case. Besides, the TGI in experiment [7], in experiment [8], in experiment [9], in experiment [11], in experiment [20] and in [12] was above 100 µM each time. Further, the TGI in [13], in experiment [19], in [16] and in experiment [18] was above 100 µM in each case.
